In one data set the test system is HIV. The conditions noted are these: PBMCs (Anderson 2012); cited from earlier work.
For data set [1] the following is noted: in vivo; cited from earlier work.
For data set [2] the following is noted: in vivo, po. From the text:
Antiretroviral concentrations in whole blood or plasma are potentially useful in monitoring adherence to PrEP.

Another data set concerns HIV-1. The following applies: cited from earlier work.

Where two headings read alike, the source gives them in different places.

As for `CC(Cn1cnc2c(N)ncnc21)OCP(=O)(O)OP(=O)(O)OP(=O)(O)O` (stereo in doubt) [tenofovir-diphosphate], the “intracellular concentration associated with a 90% reduction in HIV acquisition relative to the placebo arm” value with HIV was 16 fmol per million peripheral blood mononuclear cells (PBMCs).
`C[C@H](Cn1cnc2c(N)ncnc21)OCP(=O)(O)O` [Tenofovir]: the intracellular half-life in data set [1] was 150 h. In data set [1], the plasma half-life is 17 h. In addition, the “window of medication usage reflected by TFV detection in whole blood or plasma” value in data set [2] is “one to at least seven days”. For the same compound, the figures for the “HIV-1 risk reduction corresponding to intracellular tenofovir concentrations” value with HIV-1 (2 doses per week), with HIV-1 (4 doses per week) and in the data set with HIV-1 (7 doses per week) were 76%, 96% and 99%, respectively.

The record behind these values is patent publication US20220170949A1, “SYSTEM AND METHOD FOR DETECTING THERAPEUTIC AGENTS TO MONITOR ADHERENCE TO A TREATMENT REGIMEN” (ORASURE TECHNOLOGIES, INC., priority 2019, published 2022).
